Source: PubChem BioAssay (NCI)
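Each compound was tested at five concentrations against cells in 96-well plates for 48 hours. GI50 = concentration required for 50% inhibition of growth. TGI: concentration producing complete growth inhibition.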

Columns and labels:
Assay in all cases: DTP human tumour cell line panel, 48 h
OVCAR-4 ovarian = system: OVCAR-4 ovarian
SW-620 colon = system: SW-620 colon
HCC-2998 colon = system: HCC-2998 colon
CCRF-CEM leukemia = system: CCRF-CEM leukemia
SK-MEL-5 melanoma = system: SK-MEL-5 melanoma
SK-MEL-2 melanoma = system: SK-MEL-2 melanoma
SF-268 CNS = system: SF-268 CNS
SNB-75 CNS = system: SNB-75 CNS
IGROV1 ovarian = system: IGROV1 ovarian
MDA-MB-435 = system: MDA-MB-435

| SMILES | GI50 (OVCAR-4 ovarian) [µM] | TGI (OVCAR-4 ovarian) [µM] | GI50 (SW-620 colon) [µM] | TGI (SW-620 colon) [µM] | GI50 (HCC-2998 colon) [µM] | TGI (HCC-2998 colon) [µM] | GI50 (CCRF-CEM leukemia) [µM] | TGI (CCRF-CEM leukemia) [µM] | GI50 (SK-MEL-5 melanoma) [µM] | TGI (SK-MEL-5 melanoma) [µM] | GI50 (SK-MEL-2 melanoma) [µM] | TGI (SK-MEL-2 melanoma) [µM] | GI50 (SF-268 CNS) [µM] | TGI (SF-268 CNS) [µM] | GI50 (SNB-75 CNS) [µM] | TGI (SNB-75 CNS) [µM] | GI50 (IGROV1 ovarian) [µM] | TGI (IGROV1 ovarian) [µM] | TGI (MDA-MB-435) [µM] | GI50 (MDA-MB-435) [µM] |
| --- | --- | --- | --- | --- | --- | --- | --- | --- | --- | --- | --- | --- | --- | --- | --- | --- | --- | --- | --- | --- |
| CC(C)[O-].CC(C)[O-].O=C1C=C([O-])C(=O)c2ccccc21.O=C1C=C([O-])C(=O)c2ccccc21.[Ti+4] | > 100 | > 100 | 44.2 | > 100 | > 91.7 | > 100 | > 73 | > 100 | 6.32 | > 66.8 | 17.2 | > 71.2 | > 100 | > 100 | 17.5 | > 100 | > 100 | > 100 | – | – |
| O=C(O)NC(c1ccccc1)C(NC(=O)c1ccccc1)c1ccccc1 (stereo not drawn) | – | > 100 | – | > 100 | – | – | – | – | – | – | – | > 100 | – | > 100 | – | > 100 | – | > 100 | – | – |
| CC1=C(C(=O)Nc2cc(=O)n(C)c(=O)n2C)C(c2cccc([N+](=O)[O-])c2)C(C(=O)Nc2cc(=O)n(C)c(=O)n2C)=C(C)N1 | – | > 100 | – | > 100 | – | > 100 | – | > 100 | – | > 100 | – | > 100 | – | > 100 | – | 99.5 | – | > 100 | – | – |
| CCN(CC)CCCNC(=O)C1COc2cc(-c3cc(=O)c4ccccc4o3)ccc2O1 (stereo not drawn) | – | > 100 | – | > 100 | – | > 100 | – | > 100 | – | 37.6 | – | – | – | > 100 | – | > 100 | – | > 100 | – | – |
| C[C@]12CCC(=O)C(O)=C1CC[C@@H]1C2CC[C@]2(C)NC(=O)CCC12 (stereo partly drawn) | – | > 100 | – | > 100 | – | – | – | > 100 | – | > 100 | – | > 100 | – | > 100 | – | > 100 | – | > 100 | – | – |
| CNC/C(Cl)=N/S(=O)(=O)c1ccc(C)cc1 | – | 25.4 | – | > 100 | – | 16.2 | – | – | – | 36.7 | – | 34.4 | – | > 100 | – | 18.4 | – | 91.2 | 21.5 | – |
| COc1ccc(-c2cc(=O)c3ccccc3o2)cc1N | – | > 100 | – | > 100 | – | > 100 | – | > 100 | – | > 100 | – | > 100 | – | > 100 | – | 93.2 | – | > 100 | – | – |
| CC(=Nc1ccccc1)C1=C(O)C(Cc2ccc(O)cc2)NC1=O (stereo not drawn) | 0.385 | > 100 | 0.0485 | > 100 | 0.124 | 0.641 | 0.131 | > 100 | 0.0512 | 2.37 | 0.206 | > 100 | 0.117 | > 80.2 | 0.07 | 0.566 | 0.232 | – | – | – |
| O=C1c2ccccc2-c2oc(=O)c3ccccc3c21 | – | > 100 | – | > 100 | – | – | – | > 100 | – | > 100 | – | > 100 | – | – | – | > 100 | – | > 100 | > 100 | – |
| CC(=O)OC1CCn2nnc(CO)c21 (stereo not drawn) | – | > 100 | – | > 100 | – | > 100 | – | – | – | > 100 | – | > 100 | – | – | – | > 100 | – | > 100 | – | – |
| O=C(c1ccccc1)c1c(-c2ccccc2)sc2nc3ccccc3nc12 | – | > 100 | – | > 100 | – | > 100 | – | > 100 | – | > 100 | – | > 100 | – | > 100 | – | 85.6 | – | > 100 | – | – |
| CC1=C(C(=O)Nc2ccc(Cl)c(Cl)c2)C(c2cccc(Cl)c2)NC(=O)N1 (stereo not drawn) | 14.1 | > 50 | 12.6 | > 29.4 | – | – | – | – | 8.93 | 17.4 | 9.95 | 19.3 | 7.85 | 17.4 | 9.67 | 28.7 | 7.51 | 21.6 | 1.92 | 0.464 |
| Cc1cccc(C)c1CO | – | > 100 | – | > 100 | – | > 100 | – | > 100 | – | – | – | > 100 | – | > 100 | – | > 100 | – | > 100 | – | – |
| CCOC(=O)Cc1ccc2c(c1O)C(=O)c1c(ccc(CC(=O)OCC)c1O)C2=O | – | – | – | > 100 | – | > 100 | – | > 100 | – | > 100 | – | > 100 | – | > 100 | – | > 100 | – | – | – | – |
| Cc1cc(-c2nc3sccn3c2/C=N/N=C(N)N)c(C)s1 | 16.2 | 35.3 | 21.8 | 54.5 | – | – | 16.6 | 48 | 14.6 | 30 | – | – | 16.6 | 31.7 | 15 | 30.2 | – | – | 26.1 | 13.3 |
| O=C(O)Cc1cc(=O)[nH]c2c1/C(=N/O)CCC2 | – | – | – | > 100 | – | > 100 | – | > 100 | – | > 100 | – | > 100 | – | > 100 | – | – | – | > 100 | – | – |
| COc1ccc(C(=O)C(C(=O)CC(=O)Nc2cccc(C(F)(F)F)c2)c2ccc(OC)cc2)cc1 (stereo not drawn) | – | > 100 | – | > 100 | – | > 100 | – | > 100 | – | > 100 | – | > 100 | – | > 100 | – | 85.5 | – | > 100 | – | – |
| c1ccc2c(NCCCCCCNc3c4ccccc4nc4ccccc34)c3ccccc3nc2c1 | – | 2.18 | – | 2.18 | – | 1.76 | – | 1.58 | – | 2.86 | – | 2.75 | – | 2.71 | – | 2.29 | – | – | 2.27 | – |
| CN1CC(=O)N(C)c2ncn(Cc3ccccc3)c2C1=O | – | > 100 | – | > 100 | – | > 100 | – | > 100 | – | > 100 | – | – | – | > 100 | – | > 100 | – | > 100 | – | – |
| COC(=O)C1=C(O)c2cc(-c3ccccc3)c(-c3ccccc3)c(C#N)c2NC(=O)C1 | – | > 100 | – | – | – | > 100 | – | > 100 | – | – | – | > 100 | – | – | – | 93.3 | – | 4.74 | – | – |
| c1cc(N2CCCN(c3ccc(C4=NCCCN4)cc3)CC2)ccc1C1=NCCCN1 | > 100 | > 100 | > 100 | > 100 | – | – | > 100 | > 100 | 46.6 | > 100 | – | – | > 100 | > 100 | > 100 | > 100 | > 100 | > 100 | > 100 | > 100 |
